Source: US20110183991A1, “5HT7 RECEPTOR LIGANDS AND COMPOSITIONS COMPRISING THE SAME” (LABORATORIOS DEL DR. ESTEVE, S.A., priority 2008, published 2011)
Like-named read-outs stand apart in the source and are kept apart here.

Molecular target: T1, Cloned Human Serotonin Receptor, Subtype 7 (h5HT7), expressed in CHO cells (Homo sapiens, UniProt P34969)
T1 construct: purchased PerkinElmer 6120512; host or cells: CHO cells
Assay: Radioligand binding assay, [125I]LSD, cloned human 5HT7 receptor on Flashplate
Conditions: for inhibition at 1 µM: read-out: %-Inhib. (10^−6 M)
Procedure: The protocol assay was essentially the recommended protocol in the Technical Data Sheet by PerkinEmer Life and Analytical Sciences. The Mass membrane protein/well was typically 12 μg and the Receptor/well was about 9-10 fmoles. The Flashplate were let equilibrate at room temperature for one hour before the addition of the components of the assay mixture. The binding buffer was: 50 mM Tris-HCl, pH 7.4, containing 10 mM MgCl2, 0.5 mM EDTA and 0.5% BSA. […] Nonspecific binding was determined with 50 μM of Clozapine. The assay volume was 25 μl. TopSeal-A were applied onto Flashplate microplates and they were incubated at room temperature for 240 minutes in darkness.

[1] = compound at 10^−6 M, radioligand [125I]LSD 0.82 nM
[2] = 5HT7 binding experiments on the screening selection

T1 sequence (P34969 whole entry): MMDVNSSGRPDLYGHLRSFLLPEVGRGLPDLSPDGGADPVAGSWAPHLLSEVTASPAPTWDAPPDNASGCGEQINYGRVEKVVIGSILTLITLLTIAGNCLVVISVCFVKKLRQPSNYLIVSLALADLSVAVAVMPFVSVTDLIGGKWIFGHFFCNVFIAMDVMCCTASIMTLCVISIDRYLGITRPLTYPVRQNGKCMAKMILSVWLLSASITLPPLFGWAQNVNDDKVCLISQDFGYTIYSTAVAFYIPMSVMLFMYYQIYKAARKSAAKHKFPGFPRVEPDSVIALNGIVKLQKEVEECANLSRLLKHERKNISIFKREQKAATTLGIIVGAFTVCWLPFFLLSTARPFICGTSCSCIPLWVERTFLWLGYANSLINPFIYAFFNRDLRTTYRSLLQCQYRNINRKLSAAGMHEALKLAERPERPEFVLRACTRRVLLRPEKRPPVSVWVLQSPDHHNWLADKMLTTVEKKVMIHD

**Q.** With `Cn1cc(CN2CCN(c3ccccc3)CC2)c2ccccc21` [Ex 1, 1-methyl-3-((4-phenylpiperazin-1-yl)methyl)-1H-indole] as the molecule, how does the inhibition at 1 µM [1] read?
**A.** 22.3%

**Q.** Which inhibition at 1 µM [1] does the source give for `Oc1cccc(N2CCN(Cc3ccc(OC(F)(F)F)cc3)CC2)c1` [Ex 2, 3-(4-(4-(trifluoromethoxy)benzyl)piperazin-1-yl)phenol] here?
**A.** 15.1%

**Q.** `c1ccc(OCCN2CCN(c3cccc4[nH]ccc34)CC2)cc1` [Ex 3, 4-(4-(2-phenoxyethyl)piperazin-1-yl)-1H-indole] was tested. Which inhibition at 1 µM [1] did it give?
**A.** 53.7%

**Q.** And the IC50 (radioligand [125I]LSD 0.82 nM)?
**A.** 1940 nM

**Q.** How did the inhibition at 1 µM [1] turn out when `Fc1cc2c(c(CN3CCN(C4CCc5ccccc5C4)CC3)c1)OCOC2` (stereo not shown) [Ex 4, 1-((6-fluoro-4H-benzo[d][1,3]dioxin-8-yl)methyl)-4-(1,2,3,4-tetrahydronaphthalen-2-yl)piperazine] was run?
**A.** 49%

**Q.** What about the IC50 (radioligand [125I]LSD 0.82 nM) of the same molecule?
**A.** 2330 nM

**Q.** How did the inhibition at 1 µM [1] turn out when `Cc1cc(NC(=O)CN2CCN(c3cccc4[nH]ccc34)CC2)n(C)n1` [Ex 5, 2-(4-(1H-indol-4-yl)piperazin-1-yl)-N-(1,3-dimethyl-1H-pyrazol-5-yl)acetamide] was run?
**A.** 14.3%

**Q.** How did the inhibition at 1 µM [1] turn out when `CC[C@H](C)C(=O)N1CCN(Cc2cc(C(C)C)ccc2OC)CC1` [Ex 6, (S)-1-(4-(5-isopropyl-2-methoxybenzyl)piperazin-1-yl)-2-methylbutan-1-one] was run?
**A.** 15%

**Q.** What does the source list for `N#CCCCN1CCN(c2cccc3[nH]ccc23)CC1` [Ex 7, 4-(4-(1H-indol-4-yl)piperazin-1-yl)butanenitrile]?
**A.** IC50 (radioligand [125I]LSD 0.82 nM): 713 nM; inhibition at 1 µM: 49.6%

**Q.** With `COc1ccc(C(C)C)cc1CN1CCN(C(=O)c2ccsc2)CC1` [Ex 8, (4-(5-isopropyl-2-methoxybenzyl)piperazin-1-yl)(thiophen-3-yl)methanone] as the molecule, how does the inhibition at 1 µM [1] read?
**A.** 30.5%

**Q.** Which inhibition at 1 µM [1] does the source give for `COc1ccc(C(C)C)cc1CN1CCN(C(=O)c2ccc(Br)cc2)CC1` [Ex 9, (4-bromophenyl)(4-(5-isopropyl-2-methoxybenzyl)piperazin-1-yl)methanone] here?
**A.** 68.1%

**Q.** And the IC50 (radioligand [125I]LSD 0.82 nM)?
**A.** 1790 nM

**Q.** For `Cc1ccc(N2CCN(Cc3ccc(Cl)nc3)CC2)c(C)c1` [Ex 10, 1-((6-chloropyridin-3-yl)methyl)-4-(2,4-dimethylphenyl)piperazine], which inhibition at 1 µM [1] is on record?
**A.** 16.6%

**Q.** `COc1ccc(C(C)C)cc1CN1CCN(C(=O)Cc2c[nH]c3ccccc23)CC1` [Ex 11, 2-(1H-indol-3-yl)-1-(4-(5-isopropyl-2-methoxybenzyl)piperazin-1-yl)ethanone] was tested. Which inhibition at 1 µM did it give?
**A.** 16.3%

**Q.** How did the inhibition at 1 µM [1] turn out when `COc1ccc(CN2CCN(c3ccc(OC)c(OC)c3)CC2)c(OC)n1` [Ex 12, 1-(3,4-dimethoxyphenyl)-4-((2,6-dimethoxypyridin-3-yl)methyl)piperazine] was run?
**A.** -0.3%

**Q.** `Cc1ccc(N2CCN(Cc3ccc(OC4CCCCO4)cc3)CC2)c(C)c1` (stereo not shown) [Ex 13, 1-(2,4-dimethylphenyl)-4-(4-(tetrahydro-2H-pyran-2-yloxy)benzyl)piperazine] was tested. Which inhibition at 1 µM [1] did it give?
**A.** 12.1%

**Q.** With `FC(F)(F)c1cccc(N2CCN(Cc3cccnc3Nc3ccccc3)CC2)c1` [Ex 14, N-phenyl-3-((4-(3-(trifluoromethyl)phenyl)piperazin-1-yl)methyl)pyridin-2-amine] as the molecule, how does the inhibition at 1 µM [1] read?
**A.** 19.5%

**Q.** With `COc1ccc(CN2CCN(c3ccccc3OC(C)C)CC2)c(OC)n1` [Ex 15, 1-((2,6-dimethoxypyridin-3-yl)methyl)-4-(2-isopropoxyphenyl)piperazine] as the molecule, how does the IC50 read?
**A.** 82.2 nM

**Q.** What about the inhibition at 1 µM of the same molecule?
**A.** 92.2%

**Q.** For `COc1ccc(CN2CCN(c3ccc(C)cc3C)CC2)c(OC)n1` [Ex 16, 1-((2,6-dimethoxypyridin-3-yl)methyl)-4-(2,4-dimethylphenyl)piperazine], which inhibition at 1 µM [1] is on record?
**A.** 8.8%

**Q.** For `Cn1cc(CN2CCN(c3cccc(C(F)(F)F)c3)CC2)c(=O)n(C)c1=O` [Ex 17, 1,3-dimethyl-5-((4-(3-(trifluoromethyl)phenyl)piperazin-1-yl)methyl)pyrimidine-2,4(1H,3H)-dione], which inhibition at 1 µM [1] is on record?
**A.** 28.5%

**Q.** `COc1ccc(CN2CCN(c3ccc(Cl)cc3)CC2)c(OC)n1` [Ex 18, 1-(4-chlorophenyl)-4-((2,6-dimethoxypyridin-3-yl)methyl)piperazine] was tested. Which inhibition at 1 µM [1] did it give?
**A.** 12.3%

**Q.** What does the source list for `c1cc(N2CCN(Cc3ccc(OC4CCCCO4)cc3)CC2)c2cc[nH]c2c1` (stereo not shown) [Ex 19, 4-(4-(4-(tetrahydro-2H-pyran-2-yloxy)benzyl)piperazin-1-yl)-1H-indole]?
**A.** inhibition at 1 µM [1]: 59.5%; IC50 (radioligand [125I]LSD 0.82 nM): 1140 nM

**Q.** For `Cc1cccc(-n2c(=O)c(CN3CCN(c4cccc5[nH]ccc45)CC3)cc3cccnc32)c1` [Ex 20, 3-((4-(1H-indol-4-yl)piperazin-1-yl)methyl)-1-m-tolyl-1,8-naphthyridin-2(1H)-one], which inhibition at 1 µM [1] is on record?
**A.** 51.9%

**Q.** What about the IC50 (radioligand [125I]LSD 0.82 nM) of the same molecule?
**A.** 423 nM

**Q.** Which inhibition at 1 µM [1] does the source give for `COc1ccc(CN2CCN(c3cccc(C(F)(F)F)c3)CC2)c(OC)n1` [Ex 21, 1-((2,6-dimethoxypyridin-3-yl)methyl)-4-(3-(trifluoromethyl)phenyl)piperazine] here?
**A.** 9.4%

**Q.** How did the inhibition at 1 µM [1] turn out when `COc1ccc(CN2CCN(c3cccc4[nH]ccc34)CC2)c(OC)n1` [Ex 22, 4-(4-((2,6-dimethoxypyridin-3-yl)methyl)piperazin-1-yl)-1H-indole] was run?
**A.** 114%

**Q.** And the IC50 (radioligand [125I]LSD 0.82 nM)?
**A.** 109 nM

**Q.** `COc1ccc(C(C)C)cc1CN1CCN(c2ccc(Cl)cc2)CC1` [Ex 23, 1-(4-chlorophenyl)-4-(5-isopropyl-2-methoxybenzyl)piperazine] was tested. Which inhibition at 1 µM [1] did it give?
**A.** 35.9%

**Q.** With `COc1ccc(C(C)C)cc1CN1CCN(c2ccc(C)cc2C)CC1` [Ex 24, 1-(2,4-dimethylphenyl)-4-(5-isopropyl-2-methoxybenzyl)piperazine] as the molecule, how does the inhibition at 1 µM [1] read?
**A.** 41.6%

**Q.** For `Clc1ccc(CN2CCN(c3cccc4[nH]ccc34)CC2)cn1` [Ex 25, 4-(4-((6-chloropyridin-3-yl)methyl)piperazin-1-yl)-1H-indole], which IC50 is on record?
**A.** 328 nM

**Q.** And the inhibition at 1 µM?
**A.** 66.8%

**Q.** `O=[N+]([O-])c1ccc(N2CCN(Cc3cccnc3Nc3ccccc3)CC2)cc1` [Ex 26, 3-((4-(4-nitrophenyl)piperazin-1-yl)methyl)-N-phenylpyridin-2-amine] was tested. Which inhibition at 1 µM [1] did it give?
**A.** -4.6%

**Q.** How did the inhibition at 1 µM [1] turn out when `COc1ccc(C(C)C)cc1CN1CCN(c2ncccn2)CC1` [Ex 27, 2-(4-(5-isopropyl-2-methoxybenzyl)piperazin-1-yl)pyrimidine] was run?
**A.** 48.9%

**Q.** How did the inhibition at 1 µM [1] turn out when `c1ccc2[nH]c(CN3CCN(c4cccc5[nH]ccc45)CC3)nc2c1` [Ex 28, 2-((4-(1H-indol-4-yl)piperazin-1-yl)methyl)-1H-benzo[d]imidazole] was run?
**A.** 28.8%

**Q.** How did the inhibition at 1 µM [1] turn out when `c1ccc(CN2CCN(c3cccc4[nH]ccc34)CC2)cc1` [Ex 30, 4-(4-benzylpiperazin-1-yl)-1H-indole] was run?
**A.** 83.1%

**Q.** And the IC50 (radioligand [125I]LSD 0.82 nM)?
**A.** 339 nM

**Q.** For `Fc1ccccc1CN1CCN(c2cccc3[nH]ccc23)CC1` [Ex 31, 4-(4-(2-fluorobenzyl)piperazin-1-yl)-1H-indole], which IC50 (radioligand [125I]LSD 0.82 nM) is on record?
**A.** 460 nM

**Q.** What about the inhibition at 1 µM of the same molecule?
**A.** 82.6%

**Q.** With `c1ccc2cc(CN3CCN(c4cccc5[nH]ccc45)CC3)ccc2c1` [Ex 32, 4-(4-(naphthalen-2-ylmethyl)piperazin-1-yl)-1H-indole] as the molecule, how does the IC50 (radioligand [125I]LSD 0.82 nM) read?
**A.** 760 nM

**Q.** And the inhibition at 1 µM?
**A.** 78.3%

**Q.** With `Clc1ccccc1CN1CCN(c2cccc3[nH]ccc23)CC1` [Ex 33, 4-(4-(2-chlorobenzyl)piperazin-1-yl)-1H-indole] as the molecule, how does the IC50 (radioligand [125I]LSD 0.82 nM) read?
**A.** 223 nM

**Q.** And the inhibition at 1 µM?
**A.** 78.2%

**Q.** `Clc1ccc(CN2CCN(c3cccc4[nH]ccc34)CC2)cc1Cl` [Ex 34, 4-(4-(3,4-dichlorobenzyl)piperazin-1-yl)-1H-indole] was tested. Which IC50 (radioligand [125I]LSD 0.82 nM) did it give?
**A.** 1240 nM

**Q.** And the inhibition at 1 µM?
**A.** 54.7%

**Q.** How did the inhibition at 1 µM [1] turn out when `Clc1ccc(CN2CCN(c3cccc4[nH]ccc34)CC2)c(Cl)c1` [Ex 35, 4-(4-(2,4-dichlorobenzyl)piperazin-1-yl)-1H-indole] was run?
**A.** 51.3%

**Q.** For `O=[N+]([O-])c1cccc(CN2CCN(c3cccc4[nH]ccc34)CC2)c1` [Ex 36, 4-(4-(3-nitrobenzyl)piperazin-1-yl)-1H-indole], which inhibition at 1 µM [1] is on record?
**A.** 41.5%

**Q.** For `CC(C)Oc1ccccc1N1CCN(Cc2ccc(Cl)nc2)CC1` [b, 1-((6-chloropyridin-3-yl)methyl)-4-(2-isopropoxyphenyl)piperazine], which “affinity for the 5HT7 receptor (in words)” value (from here on “affinity”) [2] is on record?
**A.** good affinity

**Q.** `CCOc1ccccc1N1CCN(Cc2c[nH]c3ccccc23)CC1` [c, 3-((4-(2-ethoxyphenyl)piperazin-1-yl)methyl)-1H-indole] was tested. Which “affinity” value did it give?
**A.** good affinity

**Q.** For `CN(C)S(=O)(=O)c1ccc2[nH]cc(CCN)c2c1` [compound a, 3-(2-aminoethyl)-N,N-dimethyl-1H-indole-5-sulfonamide], which “affinity” value is on record?
**A.** good affinity

**Q.** How did the “affinity” value [2] turn out when `O=c1[nH]c2ccccc2n1C1CCN(CCOc2ccccc2)CC1` [compound i, 1-(1-(2-phenoxyethyl)piperidin-4-yl)-1H-benzo[d]imidazol-2(3H)-one] was run?
**A.** good affinity

**Q.** `COc1ccccc1N1CCN(CCC(O)c2ccccc2)CC1` (stereo not shown) [d, 3-(4-(2-methoxyphenyl)piperazin-1-yl)-1-phenylpropan-1-ol] was tested. Which “affinity” value [2] did it give?
**A.** good affinity

**Q.** For `CC(C)Oc1ccccc1N1CCN(Cc2ccc(-n3ccnc3)cc2)CC1` [e, 1-(4-(1H-imidazol-1-yl)benzyl)-4-(2-isopropoxyphenyl)piperazine], which “affinity” value is on record?
**A.** good affinity

**Q.** `COc1ccccc1N1CCN(CCC(=O)Nc2ccc3c(c2)CCC3)CC1` [f, N-(2,3-dihydro-1H-inden-5-yl)-3-(4-(2-methoxyphenyl)piperazin-1-yl)propanamide] was tested. Which “affinity” value [2] did it give?
**A.** good affinity

**Q.** `O=c1[nH]c2ccccc2n1C1=CCN(CCCOc2ccccc2)CC1` [j, 1-(1-(3-phenoxypropyl)-1,2,3,6-tetrahydropyridin-4-yl)-1H-benzo[d]imidazol-2(3H)-one] was tested. Which “affinity” value did it give?
**A.** good affinity

**Q.** How did the “affinity” value [2] turn out when `O=c1[nH]c2ccccc2n1C1=CCN(CCOc2ccccc2)CC1` [k, 1-(1-(2-phenoxyethyl)-1,2,3,6-tetrahydropyridin-4-yl)-1H-benzo[d]imidazol-2(3H)-one] was run?
**A.** good affinity
